For assay [1], the target named is Calcium/calmodulin-dependent protein kinase type 1D (Homo sapiens) (UniProt Q8IU85). Description: Inhibition of human CAMK1d at 18.6 nM by HotSpot assay relative to control.
Assay [2] has as its target T1, Dual specificity tyrosine-phosphorylation-regulated kinase 3 (Homo sapiens) (UniProt O43781).
T1 sequence (whole entry): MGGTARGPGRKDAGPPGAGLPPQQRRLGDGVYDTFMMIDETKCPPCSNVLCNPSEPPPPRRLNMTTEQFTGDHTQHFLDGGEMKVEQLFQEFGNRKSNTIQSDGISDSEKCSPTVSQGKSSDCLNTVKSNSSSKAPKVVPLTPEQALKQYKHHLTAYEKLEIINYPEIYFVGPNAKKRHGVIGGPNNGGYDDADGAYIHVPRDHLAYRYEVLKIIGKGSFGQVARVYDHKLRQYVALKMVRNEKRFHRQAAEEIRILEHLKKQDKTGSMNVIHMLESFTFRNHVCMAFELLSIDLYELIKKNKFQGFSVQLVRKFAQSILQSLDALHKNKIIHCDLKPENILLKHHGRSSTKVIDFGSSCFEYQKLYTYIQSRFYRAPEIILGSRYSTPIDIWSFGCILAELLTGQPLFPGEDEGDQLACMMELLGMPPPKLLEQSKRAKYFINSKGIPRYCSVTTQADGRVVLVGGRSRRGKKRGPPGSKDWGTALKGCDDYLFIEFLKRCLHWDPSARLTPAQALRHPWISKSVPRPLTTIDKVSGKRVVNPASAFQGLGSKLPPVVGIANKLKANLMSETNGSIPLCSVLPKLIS
Nature of the assay: Inhibition of human DYRK3 at 18.6 nM by HotSpot assay relative to control.

The target in assay [3] is Tyrosine-protein kinase Lyn (Homo sapiens) (UniProt P07948). Description: Inhibition of human LYN B at 18.6 nM by HotSpot assay relative to control.
Sequence of Tyrosine-protein kinase Lyn (Homo sapiens) (P07948 2-512 limits assumed): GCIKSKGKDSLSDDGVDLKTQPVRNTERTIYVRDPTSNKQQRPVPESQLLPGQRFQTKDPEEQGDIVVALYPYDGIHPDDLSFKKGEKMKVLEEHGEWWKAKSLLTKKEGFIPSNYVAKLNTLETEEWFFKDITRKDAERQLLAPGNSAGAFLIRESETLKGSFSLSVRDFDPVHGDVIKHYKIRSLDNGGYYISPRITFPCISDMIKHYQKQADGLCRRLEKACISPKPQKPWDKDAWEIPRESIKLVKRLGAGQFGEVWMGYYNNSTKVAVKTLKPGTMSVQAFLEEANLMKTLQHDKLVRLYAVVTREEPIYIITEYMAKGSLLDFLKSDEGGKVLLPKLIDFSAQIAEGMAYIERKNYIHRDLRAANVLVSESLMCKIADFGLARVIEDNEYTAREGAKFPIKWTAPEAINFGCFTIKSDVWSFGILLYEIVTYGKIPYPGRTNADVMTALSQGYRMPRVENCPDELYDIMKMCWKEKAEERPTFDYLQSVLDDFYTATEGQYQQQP
Assay [4] concerns the target Mitogen-activated protein kinase kinase kinase 9 (Homo sapiens) (UniProt P80192). Description: Inhibition of human MAP3K9 at 18.6 nM by HotSpot assay relative to control.
The target of assay [5] is Insulin-like growth factor 1 receptor (Homo sapiens, UniProt P08069). The following applies: dose 18.6 nM.
Sequence of Insulin-like growth factor 1 receptor (P08069 31-736 limits assumed): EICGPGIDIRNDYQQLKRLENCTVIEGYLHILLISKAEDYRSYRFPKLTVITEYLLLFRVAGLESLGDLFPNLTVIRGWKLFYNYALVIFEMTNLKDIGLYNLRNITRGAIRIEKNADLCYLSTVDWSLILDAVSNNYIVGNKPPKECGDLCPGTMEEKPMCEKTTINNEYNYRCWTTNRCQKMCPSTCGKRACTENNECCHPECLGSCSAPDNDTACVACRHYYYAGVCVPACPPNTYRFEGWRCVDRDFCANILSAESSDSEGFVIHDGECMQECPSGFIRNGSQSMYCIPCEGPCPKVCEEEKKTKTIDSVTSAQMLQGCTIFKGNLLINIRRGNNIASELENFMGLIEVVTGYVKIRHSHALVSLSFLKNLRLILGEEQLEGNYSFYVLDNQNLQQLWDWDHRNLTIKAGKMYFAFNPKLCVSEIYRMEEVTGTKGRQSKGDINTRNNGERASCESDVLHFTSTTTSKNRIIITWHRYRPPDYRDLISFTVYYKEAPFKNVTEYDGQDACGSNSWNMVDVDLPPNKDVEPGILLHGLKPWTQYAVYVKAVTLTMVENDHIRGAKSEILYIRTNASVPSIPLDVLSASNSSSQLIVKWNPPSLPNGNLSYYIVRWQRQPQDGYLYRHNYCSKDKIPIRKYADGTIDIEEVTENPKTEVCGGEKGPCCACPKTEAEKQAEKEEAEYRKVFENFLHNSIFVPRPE
Sequence of Insulin-like growth factor 1 receptor (P08069 741-1367 limits assumed): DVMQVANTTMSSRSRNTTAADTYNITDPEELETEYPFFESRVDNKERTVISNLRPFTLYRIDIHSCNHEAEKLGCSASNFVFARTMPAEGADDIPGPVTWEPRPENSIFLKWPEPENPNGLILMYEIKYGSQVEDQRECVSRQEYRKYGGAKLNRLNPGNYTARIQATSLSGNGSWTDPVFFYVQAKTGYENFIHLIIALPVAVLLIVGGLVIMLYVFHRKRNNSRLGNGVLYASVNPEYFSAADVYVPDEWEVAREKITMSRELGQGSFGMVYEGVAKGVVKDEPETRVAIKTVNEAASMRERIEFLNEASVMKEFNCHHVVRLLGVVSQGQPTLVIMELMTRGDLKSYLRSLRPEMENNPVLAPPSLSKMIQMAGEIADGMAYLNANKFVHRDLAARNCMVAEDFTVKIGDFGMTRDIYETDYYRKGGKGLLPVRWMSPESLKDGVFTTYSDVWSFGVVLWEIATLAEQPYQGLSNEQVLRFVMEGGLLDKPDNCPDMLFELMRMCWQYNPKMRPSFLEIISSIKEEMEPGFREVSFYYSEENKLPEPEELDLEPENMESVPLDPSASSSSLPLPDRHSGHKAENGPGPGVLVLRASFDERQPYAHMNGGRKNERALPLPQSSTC
Description: Inhibition of human IGF1R at 18.6 nM by HotSpot assay relative to control
Assay [6] addresses Interleukin-1 receptor-associated kinase 1 (Homo sapiens) (UniProt P51617). Description: Inhibition of human IRAK1 at 1.82 nM by HotSpot assay relative to control.
The target of assay [7] is Calcium/calmodulin-dependent protein kinase type 1D (Homo sapiens) (UniProt Q8IU85). Description: Inhibition of human CAMK1d at 1.82 nM by HotSpot assay relative to control.
Assay [8] addresses Glycogen synthase kinase-3 alpha (Homo sapiens) (UniProt P49840). Description: Inhibition of human GSK3a at 1.82 nM by HotSpot assay relative to control.
The target in assay [9] is Serine/threonine-protein kinase pim-2 (Homo sapiens) (UniProt Q9P1W9). Description: Inhibition of human PIM2 at 1.82 nM by HotSpot assay relative to control.
Sequence of Serine/threonine-protein kinase pim-2 (Homo sapiens) (Q9P1W9 whole entry, looked up): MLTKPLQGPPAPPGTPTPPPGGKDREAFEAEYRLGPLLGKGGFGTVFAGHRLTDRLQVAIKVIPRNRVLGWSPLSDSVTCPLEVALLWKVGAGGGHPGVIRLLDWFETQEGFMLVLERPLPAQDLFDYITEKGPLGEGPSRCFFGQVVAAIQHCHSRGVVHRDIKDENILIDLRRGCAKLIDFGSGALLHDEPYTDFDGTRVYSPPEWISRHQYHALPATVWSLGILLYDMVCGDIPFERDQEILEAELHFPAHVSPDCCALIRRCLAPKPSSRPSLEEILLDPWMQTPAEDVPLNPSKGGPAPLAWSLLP
The target of assay [10] is Angiopoietin-1 receptor (Homo sapiens) (UniProt Q02763). Nature of the assay: Inhibition of human TEK at 1.82 nM by HotSpot assay relative to control.
In assay [11] the target is T2, cGMP-dependent protein kinase 2 (Homo sapiens) (UniProt Q13237).
T2 sequence (whole entry): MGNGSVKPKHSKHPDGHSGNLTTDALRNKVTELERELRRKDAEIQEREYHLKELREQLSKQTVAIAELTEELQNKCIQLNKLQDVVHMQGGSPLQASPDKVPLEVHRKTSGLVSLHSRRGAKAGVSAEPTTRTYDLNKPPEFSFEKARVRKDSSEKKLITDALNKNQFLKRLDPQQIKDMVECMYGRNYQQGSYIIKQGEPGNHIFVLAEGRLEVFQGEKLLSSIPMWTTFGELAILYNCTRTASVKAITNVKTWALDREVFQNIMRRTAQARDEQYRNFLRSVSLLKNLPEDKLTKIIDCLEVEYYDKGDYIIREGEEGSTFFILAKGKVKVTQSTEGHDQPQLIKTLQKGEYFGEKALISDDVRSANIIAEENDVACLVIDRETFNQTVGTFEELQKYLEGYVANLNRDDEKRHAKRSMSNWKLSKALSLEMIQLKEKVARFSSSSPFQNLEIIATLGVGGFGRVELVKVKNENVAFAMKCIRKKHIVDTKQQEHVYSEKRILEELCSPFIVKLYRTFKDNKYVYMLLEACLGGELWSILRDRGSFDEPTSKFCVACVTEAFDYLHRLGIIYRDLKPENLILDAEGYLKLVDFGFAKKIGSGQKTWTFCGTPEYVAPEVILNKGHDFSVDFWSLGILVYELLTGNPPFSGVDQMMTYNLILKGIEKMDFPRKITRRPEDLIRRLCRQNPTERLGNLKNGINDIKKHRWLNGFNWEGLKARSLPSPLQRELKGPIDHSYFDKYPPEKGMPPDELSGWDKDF
Description: Inhibition of human PRKG2 at 1.82 nM by HotSpot assay relative to control.

Assay [12] addresses T3, Dual specificity mitogen-activated protein kinase kinase 6 (Homo sapiens) (UniProt P52564).
T3 sequence (whole entry): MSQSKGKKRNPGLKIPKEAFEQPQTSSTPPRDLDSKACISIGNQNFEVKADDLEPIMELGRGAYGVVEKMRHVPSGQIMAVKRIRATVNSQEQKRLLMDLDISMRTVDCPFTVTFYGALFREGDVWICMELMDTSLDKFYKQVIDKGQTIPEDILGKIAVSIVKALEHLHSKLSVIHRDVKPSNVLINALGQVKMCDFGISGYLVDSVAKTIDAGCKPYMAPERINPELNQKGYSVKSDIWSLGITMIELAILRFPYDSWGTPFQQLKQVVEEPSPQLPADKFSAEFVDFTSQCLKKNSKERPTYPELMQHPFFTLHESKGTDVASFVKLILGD
Nature of the assay: Inhibition of human MKK6 at 1.82 nM by HotSpot assay relative to control.

The target of assay [13] is T4, Serine/threonine-protein kinase 3 (Homo sapiens) (UniProt Q13188).
T4 sequence (whole entry): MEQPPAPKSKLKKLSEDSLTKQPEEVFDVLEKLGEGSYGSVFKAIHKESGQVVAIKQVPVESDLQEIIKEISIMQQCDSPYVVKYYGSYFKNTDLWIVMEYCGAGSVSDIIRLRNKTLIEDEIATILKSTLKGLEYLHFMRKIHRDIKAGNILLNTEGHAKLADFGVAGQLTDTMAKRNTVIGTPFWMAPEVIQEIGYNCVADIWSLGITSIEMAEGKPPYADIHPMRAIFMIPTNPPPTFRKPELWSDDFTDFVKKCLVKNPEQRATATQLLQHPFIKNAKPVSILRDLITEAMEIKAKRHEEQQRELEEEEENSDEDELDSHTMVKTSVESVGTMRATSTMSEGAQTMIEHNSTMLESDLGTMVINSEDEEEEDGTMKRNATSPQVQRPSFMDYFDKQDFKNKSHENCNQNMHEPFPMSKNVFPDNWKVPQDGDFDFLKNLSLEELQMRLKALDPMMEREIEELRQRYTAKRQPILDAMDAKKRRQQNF
Nature of the assay: Inhibition of human STK3 at 1.82 nM by HotSpot assay relative to control.

Sequence of Calcium/calmodulin-dependent protein kinase type 1D (Homo sapiens) (Q8IU85 whole entry, looked up): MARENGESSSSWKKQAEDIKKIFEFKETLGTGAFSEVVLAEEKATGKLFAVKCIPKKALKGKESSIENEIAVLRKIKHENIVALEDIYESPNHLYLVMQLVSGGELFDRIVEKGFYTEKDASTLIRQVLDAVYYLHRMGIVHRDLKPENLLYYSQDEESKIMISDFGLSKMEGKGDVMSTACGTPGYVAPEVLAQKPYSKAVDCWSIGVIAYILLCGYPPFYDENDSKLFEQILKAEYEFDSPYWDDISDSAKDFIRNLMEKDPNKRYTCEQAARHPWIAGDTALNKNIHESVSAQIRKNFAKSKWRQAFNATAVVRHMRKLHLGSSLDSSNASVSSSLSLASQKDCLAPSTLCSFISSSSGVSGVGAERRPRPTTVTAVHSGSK
Sequence of Interleukin-1 receptor-associated kinase 1 (Homo sapiens) (P51617 whole entry, looked up): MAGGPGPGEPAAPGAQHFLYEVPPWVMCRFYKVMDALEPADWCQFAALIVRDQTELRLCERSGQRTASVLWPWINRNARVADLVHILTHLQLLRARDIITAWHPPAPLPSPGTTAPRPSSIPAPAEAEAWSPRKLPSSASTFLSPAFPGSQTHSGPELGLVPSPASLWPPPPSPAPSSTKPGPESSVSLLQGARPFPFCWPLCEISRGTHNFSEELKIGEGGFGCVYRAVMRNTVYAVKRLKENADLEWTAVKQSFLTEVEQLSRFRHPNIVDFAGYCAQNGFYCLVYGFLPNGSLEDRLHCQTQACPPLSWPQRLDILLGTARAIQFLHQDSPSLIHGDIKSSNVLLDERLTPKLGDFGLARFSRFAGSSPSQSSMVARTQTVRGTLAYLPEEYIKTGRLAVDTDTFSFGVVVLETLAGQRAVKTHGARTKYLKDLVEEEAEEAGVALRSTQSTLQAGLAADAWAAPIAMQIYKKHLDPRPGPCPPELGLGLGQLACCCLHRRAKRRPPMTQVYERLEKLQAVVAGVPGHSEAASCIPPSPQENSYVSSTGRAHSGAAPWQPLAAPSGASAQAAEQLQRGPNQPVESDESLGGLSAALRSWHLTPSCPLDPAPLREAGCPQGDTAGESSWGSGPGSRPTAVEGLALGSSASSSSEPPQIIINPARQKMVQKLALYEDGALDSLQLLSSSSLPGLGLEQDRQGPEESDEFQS
Sequence of Glycogen synthase kinase-3 alpha (Homo sapiens) (P49840 2-483 limits assumed): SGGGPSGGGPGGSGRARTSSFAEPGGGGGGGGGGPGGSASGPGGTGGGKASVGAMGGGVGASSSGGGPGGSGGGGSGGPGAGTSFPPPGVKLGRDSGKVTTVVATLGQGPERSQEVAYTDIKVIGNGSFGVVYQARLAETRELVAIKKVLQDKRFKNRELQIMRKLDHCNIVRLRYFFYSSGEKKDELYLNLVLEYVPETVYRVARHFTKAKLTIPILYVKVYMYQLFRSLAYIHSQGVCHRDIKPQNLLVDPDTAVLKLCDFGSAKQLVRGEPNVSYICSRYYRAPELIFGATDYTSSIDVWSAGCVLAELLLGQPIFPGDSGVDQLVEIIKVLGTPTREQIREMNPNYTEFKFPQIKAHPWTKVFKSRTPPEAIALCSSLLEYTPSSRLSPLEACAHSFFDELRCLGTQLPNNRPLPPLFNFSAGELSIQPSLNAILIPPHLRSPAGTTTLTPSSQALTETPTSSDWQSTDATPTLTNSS
Sequence of Mitogen-activated protein kinase kinase kinase 9 (Homo sapiens) (P80192 whole entry, looked up): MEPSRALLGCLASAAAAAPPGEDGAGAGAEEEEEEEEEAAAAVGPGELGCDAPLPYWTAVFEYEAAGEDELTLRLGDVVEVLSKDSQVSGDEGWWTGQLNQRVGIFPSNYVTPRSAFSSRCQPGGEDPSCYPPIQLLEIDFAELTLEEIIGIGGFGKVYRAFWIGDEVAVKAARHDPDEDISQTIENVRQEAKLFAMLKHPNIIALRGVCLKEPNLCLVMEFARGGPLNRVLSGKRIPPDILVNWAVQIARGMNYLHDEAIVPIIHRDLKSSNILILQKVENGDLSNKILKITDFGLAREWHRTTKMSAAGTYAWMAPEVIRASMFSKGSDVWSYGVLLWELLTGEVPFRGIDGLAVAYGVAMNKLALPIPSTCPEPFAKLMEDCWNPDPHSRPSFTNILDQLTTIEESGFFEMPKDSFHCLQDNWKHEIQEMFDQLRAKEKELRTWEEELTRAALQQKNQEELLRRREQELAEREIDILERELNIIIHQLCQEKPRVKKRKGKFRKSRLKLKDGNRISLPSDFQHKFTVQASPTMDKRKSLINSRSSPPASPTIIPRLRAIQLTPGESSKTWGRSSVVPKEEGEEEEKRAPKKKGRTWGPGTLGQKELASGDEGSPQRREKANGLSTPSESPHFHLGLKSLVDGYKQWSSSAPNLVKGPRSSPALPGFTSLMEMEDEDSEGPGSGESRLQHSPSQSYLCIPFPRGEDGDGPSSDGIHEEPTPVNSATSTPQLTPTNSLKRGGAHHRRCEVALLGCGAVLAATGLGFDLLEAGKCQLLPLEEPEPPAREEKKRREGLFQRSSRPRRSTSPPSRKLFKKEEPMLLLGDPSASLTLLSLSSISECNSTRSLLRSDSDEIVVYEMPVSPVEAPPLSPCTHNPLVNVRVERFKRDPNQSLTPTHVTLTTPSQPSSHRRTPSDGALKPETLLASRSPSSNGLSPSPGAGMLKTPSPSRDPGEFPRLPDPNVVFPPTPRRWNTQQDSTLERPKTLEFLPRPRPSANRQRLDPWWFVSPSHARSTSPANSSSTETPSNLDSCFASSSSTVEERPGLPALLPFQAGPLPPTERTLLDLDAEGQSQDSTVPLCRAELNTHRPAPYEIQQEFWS

A word on the inhibition: it is the change of the read-out against control, counted positive when it falls. Turning to `C[C@]1(O)C[C@@H](c2nc(-c3ccc4ccc(-c5ccccc5)nc4c3)c3c(N)nccn32)C1`, the inhibition is -0.1% in assay [1]; 3.01% in [2]; 4.09% in assay [3]; -2.33% in assay [4]; 66.3% in assay [5].

Regarding `C[C@@]1(C(=O)Nc2ccc(F)nc2)CCCN1c1nc(Nc2cc(C3CC3)n[nH]2)c2cccn2n1`, the inhibition is -7.77% in assay [6]; -3.77% in [7]; 4.1% in assay [8]; -3.22% in [9]; 4% in assay [10]; -0.02% in assay [11]. Further, the inhibition turned out to be 3.26% in [12] and 1.56% in assay [13].

The values are drawn from ChEMBL document CHEMBL5653615 (J Biol Chem, 2013).
